pIC50: −log10 of the molar value.
Assays:
[1] = biological target: hGYS2 enzyme (recombinant hGYS2/GN1 protein) (Homo sapiens (Human), UniProt P54840); assay: GYS2 coupled enzyme assay (PK/LDH); format: biochemical; conditions: geometric mean of at least 2 assay runs on separate days, read-out: Avg_IC50
How it was run: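 Recombinant hGYS2/GN1 (200 nM) with 2 mM UDP-glucose, 0.2% rabbit liver glycogen, 2 mM glucose-6-phosphate; UDP coupled via PK/LDH (2 mM PEP, 0.6 mM NADH). Buffer 50 mM Tris pH 7.5, 2 mM MgCl2, 100 mM KCl, 2.5% DMSO. A340 slope over 10 min; IC50 from Hill fit of duplicates.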

[2] = test system: hGYS1 enzyme / glycogen synthesis in HeLa cells; assay: GYS1 cell based assay (glycogen synthesis, Glucose-glo); parameters: species or system human; conditions: Homo sapiens, HeLa, 24 h, 24 h incubation, 20 mM glucose, geometric mean of at least 2 runs
How it was run: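 HeLa cells starved 24 h in medium containing only 1× Glutamax were plated onto compound in medium with 20 mM glucose (1% DMSO final) for 24 h, 37 °C, 5% CO2. Acid lysates were Tris-quenched, glucoamylase-digested (pH 5.3, 1 h, 37 °C) and read by Glucose-glo luminescence. IC50 came from Hill fits, as geometric mean of ≥2 runs.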

[3] = biological target: hGYS1 enzyme (recombinant hGYS1/GN1 protein) (Homo sapiens (Human), UniProt P13807); assay: GYS1 coupled enzyme assay (PK/LDH); format: biochemical; conditions: hGYS1/GN1 50 nM, UDP-Glucose 0.8 mM, G6P 1 mM; geometric mean of at least 2 runs
Chain of hGYS1 enzyme (recombinant hGYS1/GN1 protein) (P13807 whole entry): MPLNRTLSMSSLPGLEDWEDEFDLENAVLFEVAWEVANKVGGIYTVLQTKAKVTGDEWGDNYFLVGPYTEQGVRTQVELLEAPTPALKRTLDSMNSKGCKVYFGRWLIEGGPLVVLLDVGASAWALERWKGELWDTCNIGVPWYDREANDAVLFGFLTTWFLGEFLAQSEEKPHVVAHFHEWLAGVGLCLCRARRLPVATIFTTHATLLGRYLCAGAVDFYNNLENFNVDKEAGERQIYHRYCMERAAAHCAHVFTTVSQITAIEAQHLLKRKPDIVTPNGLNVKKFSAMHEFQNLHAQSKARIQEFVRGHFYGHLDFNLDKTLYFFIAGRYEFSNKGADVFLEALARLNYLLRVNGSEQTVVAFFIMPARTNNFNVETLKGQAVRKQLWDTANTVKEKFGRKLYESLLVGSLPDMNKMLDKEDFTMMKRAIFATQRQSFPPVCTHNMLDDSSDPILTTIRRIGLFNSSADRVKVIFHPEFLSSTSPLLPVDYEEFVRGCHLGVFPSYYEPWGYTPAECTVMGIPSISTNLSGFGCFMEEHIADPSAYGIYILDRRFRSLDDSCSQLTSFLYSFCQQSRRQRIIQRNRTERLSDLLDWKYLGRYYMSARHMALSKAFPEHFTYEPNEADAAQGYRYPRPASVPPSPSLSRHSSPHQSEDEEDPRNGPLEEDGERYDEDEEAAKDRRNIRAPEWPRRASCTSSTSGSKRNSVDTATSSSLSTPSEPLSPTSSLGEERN
Chain of hGYS1 enzyme (recombinant hGYS1/GN1 protein) (P46976 whole entry partner): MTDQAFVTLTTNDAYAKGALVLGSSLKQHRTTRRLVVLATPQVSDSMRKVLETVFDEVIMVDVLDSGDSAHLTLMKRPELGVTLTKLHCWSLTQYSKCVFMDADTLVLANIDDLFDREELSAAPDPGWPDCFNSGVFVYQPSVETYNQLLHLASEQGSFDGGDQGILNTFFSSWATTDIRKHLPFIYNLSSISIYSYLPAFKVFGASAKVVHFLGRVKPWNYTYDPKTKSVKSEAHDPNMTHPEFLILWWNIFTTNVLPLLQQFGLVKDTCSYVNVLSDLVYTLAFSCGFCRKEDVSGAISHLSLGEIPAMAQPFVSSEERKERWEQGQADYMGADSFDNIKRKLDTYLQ

Chain of hGYS2 enzyme (recombinant hGYS2/GN1 protein) (P54840 whole entry): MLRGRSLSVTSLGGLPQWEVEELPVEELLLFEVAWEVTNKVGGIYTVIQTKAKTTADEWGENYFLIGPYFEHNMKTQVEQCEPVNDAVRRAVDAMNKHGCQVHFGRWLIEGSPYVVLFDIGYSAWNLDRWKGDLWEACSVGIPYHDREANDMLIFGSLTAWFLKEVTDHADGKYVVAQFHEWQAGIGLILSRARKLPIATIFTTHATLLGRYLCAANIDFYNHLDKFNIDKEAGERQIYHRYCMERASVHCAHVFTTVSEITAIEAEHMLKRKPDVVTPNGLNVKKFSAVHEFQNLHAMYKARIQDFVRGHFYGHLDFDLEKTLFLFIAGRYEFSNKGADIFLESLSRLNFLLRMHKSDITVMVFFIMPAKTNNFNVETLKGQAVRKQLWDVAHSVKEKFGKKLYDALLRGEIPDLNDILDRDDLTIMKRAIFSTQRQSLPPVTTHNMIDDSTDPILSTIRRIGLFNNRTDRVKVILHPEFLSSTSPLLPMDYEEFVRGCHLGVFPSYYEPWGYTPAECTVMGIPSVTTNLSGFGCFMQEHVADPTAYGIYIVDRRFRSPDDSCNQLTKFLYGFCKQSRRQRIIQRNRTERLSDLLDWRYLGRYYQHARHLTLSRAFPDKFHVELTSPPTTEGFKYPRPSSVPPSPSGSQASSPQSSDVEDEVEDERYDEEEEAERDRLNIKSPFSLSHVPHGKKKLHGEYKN
Chain of hGYS2 enzyme (recombinant hGYS2/GN1 protein) (P46976 whole entry partner): as the sequence (P46976 whole entry partner) above

| Structure (SMILES) | pIC50 [1] | pIC50 [2] | pIC50 [3] |
| --- | --- | --- | --- |
| CC(C)c1ccc([C@@H](NC(=O)[C@@H]2C[C@@H](F)CN2C(=O)Cc2cnn[nH]2)c2ccccc2)cc1F [Compound 326, (2S,4R)-4-fluoro-N-[(S)-[3-fluoro-4-(propan-2-yl)phenyl](phenyl)methyl]-1-[2-(1H-1,2,3-triazol-5-yl)acetyl]pyrrolidine-2-carboxamide] | < 4.00 | 6.47 | 7.70 |
| CC(C)c1ccc([C@@H](NC(=O)[C@@H]2C[C@@H](F)CN2C(=O)Cn2cnnn2)c2ccccc2)cc1F [Compound 330, (2S,4R)-4-fluoro-N-[(S)-[3-fluoro-4-(propan-2-yl)phenyl](phenyl)methyl]-1-[2-(1H-1,2,3,4-tetrazol-1-yl)acetyl]pyrrolidine-2-carboxamide] | < 4.00 | 6.25 | 7.68 |
| Cc1nnc(CC(=O)N2C[C@H](F)C[C@H]2C(=O)N[C@@H](c2ccccc2)c2ccc(C(C)C)c(F)c2)o1 [Compound 332, (2S,4R)-4-fluoro-N-[(S)-[3-fluoro-4-(propan-2-yl)phenyl](phenyl)methyl]-1-[2-(5-methyl-1,3,4-oxadiazol-2-yl)acetyl]pyrrolidine-2-carboxamide] | < 4.00 | 6.57 | 7.60 |
| CC(C)c1ccc([C@@H](NC(=O)[C@@H]2C[C@@H](F)CN2C(=O)Cc2cnnn2C)c2ccccc2)cc1F [Compound 335, (2S,4R)-4-fluoro-N-[(S)-[3-fluoro-4-(propan-2-yl)phenyl](phenyl)methyl]-1-[2-(1-methyl-1H-1,2,3-triazol-5-yl)acetyl]pyrrolidine-2-carboxamide] | < 4.00 | 6.35 | 7.43 |
| CC(C)c1ccc([C@@H](NC(=O)[C@@H]2C[C@@H](F)CN2C(=O)Cc2cn(C)nn2)c2ccccc2)cc1F [Compound 336] | < 4.00 | 6.55 | 7.82 |
| CC(C)c1ccc([C@@H](NC(=O)[C@@H]2C[C@@H](F)CN2C(=O)Cc2ccno2)c2ccccc2)cc1F [Compound 338, (2S,4R)-4-fluoro-N-[(S)-[3-fluoro-4-(propan-2-yl)phenyl](phenyl)methyl]-1-[2-(1,2-oxazol-5-yl)acetyl]pyrrolidine-2-carboxamide] | < 4.00 | 6.41 | 7.47 |
| CC(C)c1ccc([C@@H](NC(=O)[C@@H]2C[C@@H](F)CN2C(=O)CN2CC(=O)N(C)CC2=O)c2ccccc2)cc1F [Compound 339, (2S,4R)-4-fluoro-N-[(S)-[3-fluoro-4-(propan-2-yl)phenyl](phenyl)methyl]-1-[2-(4-methyl-2,5-dioxopiperazin-1-yl)acetyl]pyrrolidine-2-carboxamide] | < 4.00 | 6.51 | 7.74 |
| CC(C)c1ccc([C@@H](NC(=O)[C@@H]2C[C@@H](F)[C@H](C)N2C(=O)Cc2cnn[nH]2)c2ccccc2)cc1F [Compound 340, (2S,4R,5S)-4-fluoro-N-[(S)-[3-fluoro-4-(propan-2-yl)phenyl](phenyl)methyl]-5-methyl-1-[2-(1H-1,2,3-triazol-5-yl)acetyl]pyrrolidine-2-carboxamide] | < 4.00 | 6.60 | 7.74 |
| CC(C)c1ccc([C@@H](NC(=O)[C@@H]2C[C@@H](F)CN2C(=O)Cc2ccnnc2)c2ccccc2)cc1F [Compound 342, (2S,4R)-4-fluoro-N-[(S)-[3-fluoro-4-(propan-2-yl)phenyl](phenyl)methyl]-1-[2-(pyridazin-4-yl)acetyl]pyrrolidine-2-carboxamide] | < 4.00 | 6.43 | 7.47 |
| CC(C)c1ccc([C@@H](NC(=O)[C@@H]2C[C@@H](F)CN2C(=O)Cc2cccnn2)c2ccccc2)cc1F [Compound 343] | < 4.00 | 6.34 | 7.57 |
| CC(C)c1ccc([C@@H](NC(=O)[C@@H]2C[C@@H](F)CN2C(=O)Cc2ccncc2)c2ccccc2)cc1F [Compound 347, (2S,4R)-4-fluoro-N-[(S)-[3-fluoro-4-(propan-2-yl)phenyl](phenyl)methyl]-1-[2-(pyridin-4-yl)acetyl]pyrrolidine-2-carboxamide] | < 4.00 | 6.40 | 7.52 |
| CC(C)c1ccc([C@@H](NC(=O)[C@@H]2C[C@@H](F)CN2C(=O)Cc2cccnc2)c2ccccc2)cc1F [Compound 348, (2S,4R)-4-fluoro-N-[(S)-[3-fluoro-4-(propan-2-yl)phenyl](phenyl)methyl]-1-[2-(pyridin-3-yl)acetyl]pyrrolidine-2-carboxamide] | < 4.00 | 6.57 | 7.62 |
| CC(C)c1ccc([C@@H](NC(=O)[C@@H]2C[C@@H](F)CN2C(=O)Cc2ccccn2)c2ccccc2)cc1F [Compound 349, (2S,4R)-4-fluoro-N-[(S)-[3-fluoro-4-(propan-2-yl)phenyl](phenyl)methyl]-1-[2-(pyridin-2-yl)acetyl]pyrrolidine-2-carboxamide] | < 4.00 | 6.40 | 7.60 |
| Cc1nn(C)c(C)c1CC(=O)N1C[C@H](F)C[C@H]1C(=O)N[C@@H](c1ccccc1)c1ccc(C(C)C)c(F)c1 [Compound 351, (2S,4R)-4-fluoro-N-[(S)-[3-fluoro-4-(propan-2-yl)phenyl](phenyl)methyl]-1-[2-(1,3,5-trimethyl-1H-pyrazol-4-yl)acetyl]pyrrolidine-2-carboxamide] | < 4.00 | 6.89 | 8.10 |
| Cc1cn(CC(=O)N2C[C@H](F)C[C@H]2C(=O)N[C@@H](c2ccccc2)c2ccc(C(C)C)c(F)c2)c(=O)[nH]c1=O [Compound 352, (2S,4R)-4-fluoro-N-[(S)-[3-fluoro-4-(propan-2-yl)phenyl](phenyl)methyl]-1-[2-(5-methyl-2,4-dioxo-1,2,3,4-tetrahydropyrimidin-1-yl)acetyl]pyrrolidine-2-carboxamide] | < 4.00 | 6.96 | 8.30 |
| Cc1cn(CC(=O)N2C[C@H](F)C[C@H]2C(=O)N[C@@H](c2ccccc2)c2ccc(C(C)C)c(F)c2)c(=O)n(C)c1=O [Compound 353, (2S,4R)-1-[2-(3,5-dimethyl-2,4-dioxo-1,2,3,4-tetrahydropyrimidin-1-yl)acetyl]-4-fluoro-N-[(S)-[3-fluoro-4-(propan-2-yl)phenyl](phenyl)methyl] pyrrolidine-2-carboxamide] | < 4.00 | 7.05 | 8.15 |
| CC(C)c1ccc([C@@H](NC(=O)[C@@H]2C[C@@H](F)CN2C(=O)Cn2cnc3ccccc32)c2ccccc2)cc1F [Compound 354, (2S,4R)-1-[2-(1H-1,3-benzodiazol-1-yl)acetyl]-4-fluoro-N-[(S)-[3-fluoro-4-(propan-2-yl)phenyl](phenyl)methyl] pyrrolidine-2-carboxamide] | < 4.00 | 7.22 | 8.30 |
| CC(C)c1ccc([C@@H](NC(=O)[C@@H]2C[C@@H](F)CN2C(=O)Cc2cnn(C)c2)c2ccccc2)cc1F [Compound 355, (2S,4R)-4-fluoro-N-[(S)-[3-fluoro-4-(propan-2-yl)phenyl](phenyl)methyl]-1-[2-(1-methyl-1H-pyrazol-4-yl)acetyl]pyrrolidine-2-carboxamide] | < 4.00 | 6.80 | 7.74 |

— patent US11814367B2, “Inhibitors of glycogen synthase 1 (GYS1) and methods of use thereof” (Maze Therapeutics, Inc., priority 2021, dated 2023)
